Experimental data as given in ChEMBL document CHEMBL1671673, “In vitro activity of colistin (polymyxin E) against 3,480 isolates of gram-negative bacilli obtained from patients in Canadian hospitals in the CANWARD study, 2007-2008” (Antimicrob Agents Chemother, 2009).

Assays:
Assay type in all cases: functional, organism-based
Design in all cases: scale not given: the % may be the effect or the level left
[1] = tested on: Enterobacter cloacae; assay: Antibacterial activity against Enterobacter cloacae assessed as susceptible isolates at minimum inhibitory concentration of 0.12 ug/ml by CLSI broth microdilution method
[2] = tested on: Pseudomonas aeruginosa; assay: Antibacterial activity against Ciprofloxacin-resistant Pseudomonas aeruginosa assessed as susceptible isolates at minimum inhibitory concentration of 16 ug/ml by CLSI broth microdilution method
[3] = tested on: Proteus mirabilis; assay: Antibacterial activity against Proteus mirabilis assessed as susceptible isolates at minimum inhibitory concentration of 0.12 ug/ml by CLSI broth microdilution method
[4] = tested on: Pseudomonas aeruginosa; assay: Antibacterial activity against Levofloxacin-resistant Pseudomonas aeruginosa assessed as susceptible isolates at minimum inhibitory concentration of 0.5 ug/ml by CLSI broth microdilution method
[5] = tested on: Stenotrophomonas maltophilia; assay: Antibacterial activity against Stenotrophomonas maltophilia assessed as susceptible isolates at minimum inhibitory concentration of 8 ug/ml by CLSI broth microdilution method
[6] = tested on: Pseudomonas aeruginosa; assay: Antibacterial activity against Amikacin-resistant Pseudomonas aeruginosa assessed as susceptible isolates at minimum inhibitory concentration of 2 ug/ml by CLSI broth microdilution method
[7] = tested on: Acinetobacter baumannii; assay: Antibacterial activity against Acinetobacter baumannii assessed as susceptible isolates at minimum inhibitory concentration of 0.25 ug/ml by CLSI broth microdilution method
[8] = tested on: Escherichia coli; assay: Antibacterial activity against ESBL-producing Escherichia coli assessed as susceptible isolates at minimum inhibitory concentration of 0.12 ug/ml by CLSI broth microdilution method
[9] = tested on: Acinetobacter baumannii; assay: Antibacterial activity against Acinetobacter baumannii assessed as susceptible isolates at minimum inhibitory concentration of <=0.06 ug/ml by CLSI broth microdilution method
[10] = tested on: Serratia marcescens; assay: Antibacterial activity against Serratia marcescens assessed as susceptible isolates at minimum inhibitory concentration of 2 ug/ml by CLSI broth microdilution method
[11] = tested on: Klebsiella oxytoca; assay: Antibacterial activity against Klebsiella oxytoca assessed as susceptible isolates at minimum inhibitory concentration of 0.12 ug/ml by CLSI broth microdilution method
[12] = tested on: Klebsiella aerogenes; assay: Antibacterial activity against Enterobacter aerogenes assessed as susceptible isolates at minimum inhibitory concentration of 0.12 ug/ml by CLSI broth microdilution method
[13] = tested on: Pseudomonas aeruginosa; assay: Antibacterial activity against MDR3 Pseudomonas aeruginosa assessed as susceptible isolates at minimum inhibitory concentration of 2 ug/ml by CLSI broth microdilution method
[14] = tested on: Klebsiella oxytoca; assay: Antibacterial activity against Klebsiella oxytoca assessed as susceptible isolates at minimum inhibitory concentration of 16 ug/ml by CLSI broth microdilution method
[15] = tested on: Pseudomonas aeruginosa; assay: Antibacterial activity against Pseudomonas aeruginosa assessed as susceptible isolates at minimum inhibitory concentration of <=0.06 ug/ml by CLSI broth microdilution method
[16] = tested on: Pseudomonas aeruginosa; assay: Antibacterial activity against Cefepime-resistant Pseudomonas aeruginosa assessed as susceptible isolates at minimum inhibitory concentration of 2 ug/ml by CLSI broth microdilution method
[17] = tested on: Proteus mirabilis; assay: Antibacterial activity against Proteus mirabilis assessed as susceptible isolates at minimum inhibitory concentration of 2 ug/ml by CLSI broth microdilution method
[18] = tested on: Pseudomonas aeruginosa; assay: Antibacterial activity against Amikacin-resistant Pseudomonas aeruginosa assessed as susceptible isolates at minimum inhibitory concentration of >16 ug/ml by CLSI broth microdilution method
[19] = tested on: Pseudomonas aeruginosa; assay: Antibacterial activity against Levofloxacin-resistant Pseudomonas aeruginosa assessed as susceptible isolates at minimum inhibitory concentration of 1 ug/ml by CLSI broth microdilution method
[20] = tested on: Pseudomonas aeruginosa; assay: Antibacterial activity against Pseudomonas aeruginosa assessed as susceptible isolates at minimum inhibitory concentration of <=2 ug/ml by CLSI broth microdilution method
[21] = tested on: Acinetobacter baumannii; assay: Antibacterial activity against Acinetobacter baumannii assessed as susceptible isolates at minimum inhibitory concentration of 2 ug/ml by CLSI broth microdilution method
[22] = tested on: Pseudomonas aeruginosa; assay: Antibacterial activity against MDR Pseudomonas aeruginosa assessed as susceptible isolates at minimum inhibitory concentration of 1 ug/ml by CLSI broth microdilution method
[23] = tested on: Acinetobacter baumannii; assay: Antibacterial activity against Acinetobacter baumannii assessed as susceptible isolates at minimum inhibitory concentration of 8 ug/ml by CLSI broth microdilution method
[24] = tested on: Pseudomonas aeruginosa; assay: Antibacterial activity against tazobactam-resistant Pseudomonas aeruginosa assessed as susceptible isolates at minimum inhibitory concentration of 4 ug/ml by CLSI broth microdilution method
[25] = tested on: Pseudomonas aeruginosa; assay: Antibacterial activity against MDR4 Pseudomonas aeruginosa assessed as susceptible isolates at minimum inhibitory concentration of 0.5 ug/ml by CLSI broth microdilution method
[26] = tested on: Serratia marcescens; assay: Antibacterial activity against Serratia marcescens assessed as susceptible isolates at minimum inhibitory concentration of 4 ug/ml by CLSI broth microdilution method
[27] = tested on: Acinetobacter baumannii; assay: Antibacterial activity against Acinetobacter baumannii assessed as susceptible isolates at minimum inhibitory concentration of 0.5 ug/ml by CLSI broth microdilution method
[28] = tested on: Proteus mirabilis; assay: Antibacterial activity against Proteus mirabilis assessed as susceptible isolates at minimum inhibitory concentration of 1 ug/ml by CLSI broth microdilution method
[29] = tested on: Pseudomonas aeruginosa; assay: Antibacterial activity against Meropenem-resistant Pseudomonas aeruginosa assessed as susceptible isolates at minimum inhibitory concentration of 2 ug/ml by CLSI broth microdilution method
[30] = tested on: Pseudomonas aeruginosa; assay: Antibacterial activity against Levofloxacin-resistant Pseudomonas aeruginosa assessed as susceptible isolates at minimum inhibitory concentration of >16 ug/ml by CLSI broth microdilution method
[31] = tested on: Serratia marcescens; assay: Antibacterial activity against Serratia marcescens assessed as susceptible isolates at minimum inhibitory concentration of 16 ug/ml by CLSI broth microdilution method
[32] = tested on: Pseudomonas aeruginosa; assay: Antibacterial activity against Cefepime-resistant Pseudomonas aeruginosa assessed as susceptible isolates at minimum inhibitory concentration of 0.5 ug/ml by CLSI broth microdilution method
[33] = tested on: Pseudomonas aeruginosa; assay: Antibacterial activity against Meropenem-resistant Pseudomonas aeruginosa assessed as susceptible isolates at minimum inhibitory concentration of 4 ug/ml by CLSI broth microdilution method
[34] = tested on: Klebsiella oxytoca; assay: Antibacterial activity against Klebsiella oxytoca assessed as susceptible isolates at minimum inhibitory concentration of 0.25 ug/ml by CLSI broth microdilution method
[35] = tested on: Pseudomonas aeruginosa; assay: Antibacterial activity against MDR Pseudomonas aeruginosa assessed as susceptible isolates at minimum inhibitory concentration of 0.5 ug/ml by CLSI broth microdilution method
[36] = tested on: Stenotrophomonas maltophilia; assay: Antibacterial activity against Stenotrophomonas maltophilia assessed as susceptible isolates at minimum inhibitory concentration of 0.12 ug/ml by CLSI broth microdilution method
[37] = tested on: Klebsiella oxytoca; assay: Antibacterial activity against Klebsiella oxytoca assessed as susceptible isolates at minimum inhibitory concentration of 4 ug/ml by CLSI broth microdilution method
[38] = tested on: Stenotrophomonas maltophilia; assay: Antibacterial activity against Stenotrophomonas maltophilia assessed as susceptible isolates at minimum inhibitory concentration of <=0.06 ug/ml by CLSI broth microdilution method
[39] = tested on: Proteus mirabilis; assay: Antibacterial activity against Proteus mirabilis assessed as susceptible isolates at minimum inhibitory concentration of 0.5 ug/ml by CLSI broth microdilution method
[40] = tested on: Pseudomonas aeruginosa; assay: Antibacterial activity against Amikacin-resistant Pseudomonas aeruginosa assessed as susceptible isolates at minimum inhibitory concentration of 8 ug/ml by CLSI broth microdilution method

COLISTIN
Activity [1]: 1.6%
Activity [2]: 98.6%
Activity [3]: 0%
Activity [4]: 1.8%
Activity [5]: 50.6%
Activity [6]: 97.4%
Activity [7]: 0%
Activity [8]: 1.2%
Activity [9]: 0%
Activity [10]: 1.9%
Activity [11]: 0%
Activity [12]: 0%
Activity [13]: 100%
Activity [14]: 98.1%
Activity [15]: 0%
Activity [16]: 97.3%
Activity [17]: 0%
Activity [18]: 100%
Activity [19]: 30.7%
Activity [20]: 91.6%
Activity [21]: 93.5%
Activity [22]: 38.2%
Activity [23]: 93.5%
Activity [24]: 100%
Activity [25]: 7.7%
Activity [26]: 1.9%
Activity [27]: 6.5%
Activity [28]: 0%
Activity [29]: 98.2%
Activity [30]: 100%
Activity [31]: 1.9%
Activity [32]: 6.8%
Activity [33]: 100%
Activity [34]: 18.5%
Activity [35]: 5.3%
Activity [36]: 0%
Activity [37]: 97.2%
Activity [38]: 0%
Activity [39]: 0%
Activity [40]: 97.4%
